Measured values from PubChem BioAssay AID248 (DTP/NCI, 2004).
Several values for one entry are separate records, joined by “and”; a condition that tells them apart may be missing. Equal values may be shown once. Inconclusive results and toxic doses are left out. Cut-off read from the data, not from the text of the source: active = T/C of 150% or more; inactive = T/C below 125%.

Tested on: L1210 leukemia ip in BDF1 mice, survival T/C
Experiment: NCI In Vivo Anticancer Drug Screen. Data for tumor model L1210 Leukemia (intraperitoneal) in B6D2F1 (BDF1) mice
Conditions: endpoint: mean survival time, higher = longer survival
Outline: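 Read-out is survival time, reported as the treated-group measurement over the vehicle-control measurement.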

Measured: T/C

Nc1n[nH]c(N)n1
inactive: dose: 12.5 mg/kg/injection, schedule: Q#A X020 (ip), vehicle: saline 105 % of control | dose: 25.0 mg/kg/injection, schedule: Q01DX010 (ip), vehicle: saline 103 % of control | dose: 25.0 mg/kg/injection, schedule: Q#A X020 (ip), vehicle: saline 109 % of control | dose: 28.0 mg/kg/injection, schedule: Q03HX040 (ip), vehicle: water 105 % of control | dose: 32.0 mg/kg/injection, schedule: Q01DX015 (ip), vehicle: saline 94 % of control | dose: 48.0 mg/kg/injection, schedule: Q## X008 (ip), vehicle: saline 101 % of control | dose: 50.0 mg/kg/injection, schedule: Q01DX010 (ip), vehicle: saline 110 % of control | dose: 50.0 mg/kg/injection, schedule: Q06HX068 (ip), vehicle: water 106 % of control | dose: 56.0 mg/kg/injection, schedule: Q03HX008 (ip), vehicle: water 103 % of control | dose: 56.0 mg/kg/injection, schedule: Q03HX024 (ip), vehicle: water 111 % of control | dose: 63.0 mg/kg/injection, schedule: Q01DX015 (ip), vehicle: saline 102 % of control | dose: 96.0 mg/kg/injection, schedule: Q## X008 (ip), vehicle: saline 102 % of control | dose: 100.0 mg/kg/injection, schedule: Q01DX009 (ip), vehicle: saline 108 % of control | dose: 100.0 mg/kg/injection, schedule: Q01DX009 (sc), vehicle: saline 102 % of control | dose: 100.0 mg/kg/injection, schedule: Q06HX068 (ip), vehicle: water 110 % of control | dose: 100.0 mg/kg/injection, schedule: Q#A X034 (ip), vehicle: water 107 % of control | dose: 111.0 mg/kg/injection, schedule: Q01DX Z (ip), vehicle: methylcellulose (MC) 100 % of control | dose: 112.0 mg/kg/injection, schedule: Q12HX018 (ip), vehicle: water 111 % of control | dose: 125.0 mg/kg/injection, schedule: Q01DX015 (ip), vehicle: saline 110 % of control | dose: 125.0 mg/kg/injection, schedule: Q03HX008 (oral), vehicle: water 107 % of control | dose: 125.0 mg/kg/injection, schedule: Q03HX024 (oral), vehicle: water 105 % of control | dose: 192.0 mg/kg/injection, schedule: Q## X008 (ip), vehicle: saline 104 % of control | dose: 200.0 mg/kg/injection, schedule: Q01DX001 (ip), vehicle: saline 104 % of control and 107 % of control | dose: 200.0 mg/kg/injection, schedule: Q01DX001 (sc), vehicle: saline 104 % of control | dose: 200.0 mg/kg/injection, schedule: Q01DX006 (iv), vehicle: saline 105 % of control | dose: 200.0 mg/kg/injection, schedule: Q01DX009 (sc), vehicle: saline 108 % of control | dose: 200.0 mg/kg/injection, schedule: Q01DX010 (ip), vehicle: saline 98 % of control | dose: 200.0 mg/kg/injection, schedule: Q01DX017 (ip), vehicle: water 111 % of control | dose: 200.0 mg/kg/injection, schedule: Q## X003 (ip), vehicle: saline 110 % of control | dose: 200.0 mg/kg/injection, schedule: Q## X040 (ip), vehicle: saline 104 % of control | dose: 225.0 mg/kg/injection, schedule: Q12HX010 (ip), vehicle: water 107 % of control | dose: 250.0 mg/kg/injection, schedule: Q03HX008 (oral), vehicle: water 107 % of control | dose: 250.0 mg/kg/injection, schedule: Q03HX024 (oral), vehicle: water 102 % of control | dose: 256.0 mg/kg/injection, schedule: Q## X088 (ip), vehicle: other 98 % of control | dose: 384.0 mg/kg/injection, schedule: Q## X008 (ip), vehicle: saline 103 % of control | dose: 395.0 mg/kg/injection, schedule: Q01DX001 (ip), vehicle: saline 101 % of control and 110 % of control | dose: 400.0 mg/kg/injection, schedule: Q01DX001 (ip), vehicle: saline 106 % of control | dose: 400.0 mg/kg/injection, schedule: Q01DX001 (oral), vehicle: water 102 % of control | dose: 400.0 mg/kg/injection, schedule: Q01DX001 (sc), vehicle: saline 102 % of control | dose: 400.0 mg/kg/injection, schedule: Q01DX009 (sc), vehicle: saline 108 % of control | dose: 400.0 mg/kg/injection, schedule: Q01DX010 (ip), vehicle: saline 104 % of control | dose: 400.0 mg/kg/injection, schedule: Q## X003 (ip), vehicle: saline 106 % of control | dose: 400.0 mg/kg/injection, schedule: Q## X024 (ip), vehicle: saline 100 % of control | dose: 400.0 mg/kg/injection, schedule: Q## X040 (ip), vehicle: saline 108 % of control | dose: 450.0 mg/kg/injection, schedule: Q01DX001 (ip), vehicle: water 103 % of control | dose: 500.0 mg/kg/injection, schedule: Q01DX001 (ip), vehicle: water 97 % of control and 102 % of control | dose: 500.0 mg/kg/injection, schedule: Q01DX001 (oral), vehicle: water 104 % of control | dose: 500.0 mg/kg/injection, schedule: Q01DX005 (oral), vehicle: water 101 % of control | dose: 500.0 mg/kg/injection, schedule: Q01DX Z (ip), vehicle: methylcellulose (MC) 110 % of control | dose: 500.0 mg/kg/injection, schedule: Q03HX008 (oral), vehicle: water 108 % of control | dose: 500.0 mg/kg/injection, schedule: Q04DX003 (oral), vehicle: water 105 % of control | dose: 500.0 mg/kg/injection, schedule: Q## X006 (oral), vehicle: water 102 % of control | dose: 592.0 mg/kg/injection, schedule: Q01DX001 (ip), vehicle: saline 105 % of control and 108 % of control | dose: 675.0 mg/kg/injection, schedule: Q06HX016 (ip), vehicle: saline 100 % of control | dose: 768.0 mg/kg/injection, schedule: Q## X008 (ip), vehicle: saline 111 % of control | dose: 800.0 mg/kg/injection, schedule: Q01DX001 (ip), vehicle: saline 102 % of control and 105 % of control and 106 % of control | dose: 800.0 mg/kg/injection, schedule: Q01DX001 (oral), vehicle: water 105 % of control | dose: 800.0 mg/kg/injection, schedule: Q01DX001 (sc), vehicle: saline 110 % of control | dose: 800.0 mg/kg/injection, schedule: Q## X003 (ip), vehicle: saline 108 % of control | dose: 800.0 mg/kg/injection, schedule: Q## X024 (ip), vehicle: saline 106 % of control | dose: 806.0 mg/kg/injection, schedule: Q01DX001 (ip), vehicle: saline 104 % of control | dose: 806.0 mg/kg/injection, schedule: Q08DX002 (ip), vehicle: saline 101 % of control | dose: 888.0 mg/kg/injection, schedule: Q01DX001 (ip), vehicle: saline 106 % of control and 111 % of control | dose: 900.0 mg/kg/injection, schedule: Q01DX001 (ip), vehicle: water 104 % of control | dose: 900.0 mg/kg/injection, schedule: Q03HX024 (ip), vehicle: saline 95 % of control | dose: 900.0 mg/kg/injection, schedule: Q#A X018 (ip), vehicle: water 94 % of control | dose: 1000.0 mg/kg/injection, schedule: Q01DX001 (ip), vehicle: water 101 % of control and 103 % of control | dose: 1000.0 mg/kg/injection, schedule: Q01DX001 (oral), vehicle: water 98 % of control | dose: 1000.0 mg/kg/injection, schedule: Q04DX003 (oral), vehicle: water 107 % of control | dose: 1200.0 mg/kg/injection, schedule: Q01DX001 (ip), vehicle: saline 105 % of control | dose: 1203.0 mg/kg/injection, schedule: Q01DX001 (ip), vehicle: saline 107 % of control | dose: 1203.0 mg/kg/injection, schedule: Q04DX003 (ip), vehicle: saline 110 % of control | dose: 1203.0 mg/kg/injection, schedule: Q08DX002 (ip), vehicle: saline 102 % of control | dose: 1333.0 mg/kg/injection, schedule: Q01DX001 (ip), vehicle: saline 106 % of control and 110 % of control | dose: 1600.0 mg/kg/injection, schedule: Q01DX001 (ip), vehicle: saline 107 % of control and 110 % of control | dose: 1600.0 mg/kg/injection, schedule: Q01DX001 (oral), vehicle: water 108 % of control | dose: 1600.0 mg/kg/injection, schedule: Q01DX001 (sc), vehicle: saline 107 % of control | dose: 1600.0 mg/kg/injection, schedule: Q01DX Z (oral), vehicle: saline 109 % of control | dose: 1796.0 mg/kg/injection, schedule: Q01DX001 (ip), vehicle: saline 109 % of control | dose: 1796.0 mg/kg/injection, schedule: Q08DX002 (ip), vehicle: saline 107 % of control | dose: 1800.0 mg/kg/injection, schedule: Q01DX001 (ip), vehicle: water 103 % of control | dose: 2000.0 mg/kg/injection, schedule: Q01DX001 (ip), vehicle: saline 110 % of control | dose: 2000.0 mg/kg/injection, schedule: Q01DX001 (ip), vehicle: water 101 % of control and 103 % of control | dose: 2000.0 mg/kg/injection, schedule: Q01DX001 (oral), vehicle: water 96 % of control | dose: 2000.0 mg/kg/injection, schedule: Q01DX Z (ip), vehicle: saline 96 % of control | dose: 2000.0 mg/kg/injection, schedule: Q01DX Z (ip), vehicle: water 94 % of control | dose: 2680.0 mg/kg/injection, schedule: Q08DX002 (ip), vehicle: saline 110 % of control | dose: 4000.0 mg/kg/injection, schedule: Q01DX001 (ip), vehicle: water 108 % of control | dose: 4000.0 mg/kg/injection, schedule: Q## X006 (oral), vehicle: water 107 % of control
